According to patent publication US11965006B2, “Antimicrobial and anti-cancer therapy” (UNIVERSITY OF PITTSBURGH—OF THE COMMONWEALTH SYSTEM OF …, priority 2016, dated 2024):
Entries after “also recorded” stand apart in the source; their conditions may differ. Ends that are not written are not given here.

Columns and labels:
Pseudomonas aeruginosa = format: cell-based; settings: 18 h
Description: (§1) The bactericidal activities were examined using standard bacterial culture media (MHB) without the inclusion of human blood.
FIG. 5 illustrates the bactericidal activity of the 30 amino acid AMP series against Pseudomonas aeruginosa (by kinetic assay) over time (hours). […] OD reading, at 570 nm, represents bacterial growth; background reading (˜0.05) was subtracted from sample readings. Bolded concentration indicates the determined MIC. For example, MIC for SEQ ID No. 4 was 4 μM, MIC for SEQ ID No. 8 was 2 μM, MIC for SEQ ID No. 7 was 2 μM, MIC for SEQ ID No. 5 was 2 μM, MIC for SEQ ID No. 6 was 2 μM, and MIC for SEQ ID No. 9 was 2 μM.
FIG. 6 illustrates the bactericidal activity of the 24 amino acid AMPs series against Pseudomonas aeruginosa (by kinetic assay) over time (hours). […] OD reading, at 570 nm, represents bacterial growth; background reading (˜0.05) was subtracted from sample readings. Bolded concentration indicates the determined MIC.

[1] = system: Pseudomonas aeruginosa MDR clinical isolates; format: cell-based; settings: MDR clinical isolates, 18 h
Description: as §1
(§2) Tables 3 and 4 provide the MIC data for the tested AMPs against a variety of infectious species. The following strains were tested: Enterococcus faecium MDR clinical isolates Ef 25153 and Ef 26125; methicillin-resistant Staphylococcus aureus (MRSA) clinical isolates USA300 and 150-10; Klebsiella pneumonia MDR clinical isolates C3, C5, A5, D7 and E6; and Pseudomonas aeruginosa MDR clinical isolates PA 82-8 and PA 129-5. […] Table 5 provides the data for the D-amino acid substituted AMPs and their bactericidal activities against various Klebsiella pneumonia multi-drug resistant (MDR) clinical isolates. All odd number Kp bacteria (isolated prior to colistin treatment; colistin sensitive) are paired with the corresponding even number Kp bacteria (isolated after colistin treatment; colistin resistant) from the same patient. O.D. readings represent the bacterial growth with a background reading of about 0.049+/−0.003.

[2] = system: methicillin-resistant Staphylococcus aureus (MRSA) clinical isolates; format: cell-based; settings: methicillin-resistant clinical isolates, 18 h
Description: as §1, §2

[3] = system: Enterococcus faecium MDR clinical isolates; format: cell-based; settings: MDR clinical isolates, 18 h
Description: as §1, §2

[4] = system: Klebsiella pneumonia MDR clinical isolates; format: cell-based; settings: 18 h
Description: as §1, §2

[5] = system: P. aeruginosa lipopolysaccharide (LPS)-induced secretion of tumor necrosis factor (TNF) in Raw (264.7) Cells; test: Neutralization of LPS-induced TNF secretion; format: cell-based; settings: 1 μg/ml LPS
Description: Anti-inflammatory activity is based on the determination of cytokine stimulation of major inflammatory (e.g. TNF) or anti-inflammatory (e.g., IL-10) cytokines. For in vitro studies, TNF is measured using culture medium from LPS-stimulated macrophage cultures in the presence or absence of peptide treatment. For in vivo studies, cytokine levels in bronchoalveolar lavage (BAL) fluid were quantified using the mouse cytokine multiplex panel assay (Milliplex; Millipore, Billerica, Mass.). The expressions of cytokines were analyzed using the Luminex assay system, based on manufacturer's instructions and our previous publication. Standard recombinant protein solution was used to generate a standard curve for each analyzed protein. Absolute cytokine concentrations were calculated from the standard curve for each cytokine.
A high dosage (1 μg/ml) of LPS was used to stimulate the TNF secretion in raw cells.

P. aeruginosa = test: In vivo respiratory P. aeruginosa infection; settings: high dosage bacterial inoculation, FIG. 16

Sequence | MIC (Pseudomonas aeruginosa) [µM] | MIC PA82 82-8 [1] [µM] | MIC PA 129-5 [1] [µM] | MIC MRSA 150-10 [2] [µM] | MIC MRSA USA300 [2] [µM] | MIC Ef 25153 [3] [µM] | MIC Ef 26125 [3] [µM] | MIC A5 [4] [µM] | MIC C3 [4] [µM] | MIC C5 [4] [µM] | MIC D7 [4] [µM] | MIC E6 [4] [µM] | neutralizing LPS-induced TNF secretion [5] | antimicrobial activity against respiratory P. aeruginosa infection (P. aeruginosa)
ILKKWWKTSKGLLGGLLGGVTSVIKKLKKI [SEQ ID No. 8] | 2 | >4 | <2 | 4 | <2 | >4 | <2 | >4 | <2 | 4 | <2 | <2 | – | –
ILKKWWKTSKGLLGGLLGKVTSVIKGLKNI [SEQ ID No. 6] | 2 | >4 | >4 | <2 | >4 | >4 | <1 | >4 | 4 | 4 | 4 | 4 | display Neutralizing Activities | –
ILKKWWKTSKGLLGGLLGKVTSVIKGLNNI [SEQ ID No. 5] | 2 | >4 | <1 | >4 | >4 | >4 | <2 | >4 | 4 | 2 | <1 | 4 | good activity; also recorded: display Neutralizing Activities | –
ILKKWWKTVKGLLGGLLGGVTSVIKKLKKI [SEQ ID No. 9] | 2 | >4 | >4 | <2 | <2 | <2 | <2 | >4 | <2 | 4 | <2 | <2 | – | –
LKKWWKKVKGLLGGLLGK [SEQ ID No. 19, LKKWWKKVKGLLGGLLGK] | – | 8 | <1 | <1 | <2 | <2 | <2 | <2 | <2 | – | <2 | <2 | good activity; also recorded: Display Neutralizing Activities | excellent antimicrobial activity
LKKWWKTVKGLLGGLLGKVTSVIK [SEQ ID No. 14] | – | <2 | <2 | <2 | <2 | <2 | <2 | >4 | <2 | 4 | <2 | <2 | good activity; also recorded: Display Neutralizing Activities | excellent antimicrobial activity
